Source: patent publication US6512166B1, “Combinations of fungal cell wall degrading enzyme and fungal cell membrane affecting compound” (priority 1991, dated 2003)
≈ marks a conversion by molar mass, not a printed value.

How the values were obtained:
[1] = Solubility, guidance for forming solutions
From the text: Compositions for use in the systems herein are readily formulated by admixing the fungal cell wall degrading enzymes and the antifungal fungal cell membrane affecting compounds with non-toxic carriers appropriate for the particular use for a composition, e.g., agriculturally acceptable carriers for agricultural uses and pharmaceutically acceptable carriers for medicinal uses. They may be formulated as liquids (solutions or suspensions) or as solids. Since the fungal cell wall degrading enzymes need free water for activity, water must be present at the time of function. […] Water is a preferred vehicle where components are soluble in it. […] Organic solvents can also be used and may be required in some cases if a solution is desired. Guidance for forming solutions follows. […] Suspension can also be employed.

[2] = tested on: Fusarium oxysporum strain FOP1; assay: Inhibition of spore germination, ELISA plate assay (Examples V-XIV, XVII); format: cell-based; conditions: for inhibition of spore germination: FIG. 8
Method: (§1) The concentration where fungal cell wall degrading enzyme individually provides a specified percentage fungal inhibition or where antifungal fungal cell membrane affecting compound individually provides a specific percentage fungal inhibition can be determined as follows: Assays are performed under sterile conditions. Equal volumes of spore suspensions, 3× potato dextrose broth, and the test solution or suspension in 5 mM Tris-HCl (pH 6.0) or 5 mM potassium phosphate buffer (pH 6.7) are mixed. The control is the same as the test solution except for the control the antifungal agent is omitted. The assay mixtures (total volume 45 or 30 μl) are incubated on flat-bottomed ELISA plates, each containing 96 wells, with 2,000 to 3,000 spores per well, at 25° C. After 22 to 30 hours, the plates are placed under an inverted microscope. The percentage of conidia germinating is determined as the percentage of the first 100 spores randomly found in a well. In addition, the lengths of 20 germ tubes are measured and averaged. All experiments are performed twice, with three replicates for each treatment. The inhibition values obtained in the two experiments are combined and averaged, and standard deviations are calculated from the 6 data points. The values obtained for the control are taken as 0% inhibition and all other values are divided by the values obtained for the control and multiplied by 100% to obtain percent inhibition. Determination of concentration corresponding to a particular percent inhibition is carried out by subjecting dose-response curves to regression analysis by using a binomial regression of the third order, with R^2 ranging between 0.95 and 0.99.
(§2) Assays were carried out by the procedure described in the summary of the invention section. Dose response curves were obtained by probit analysis of data collected from two separate experiments with each experiment involving three treatment replicates.
(§3) Dose response curves were determined for each antifungal fungal cell membrane affecting compound and for each fungal cell wall degrading enzyme singly. Then each fungal cell wall degrading enzyme at a concentration giving 10% inhibition when used alone was combined with increasing amounts of antifungal fungal cell membrane affecting compound. Then the concentration of antifungal fungal cell membrane affecting compound causing the ED50 for each combination was calculated by probit analysis of data collected from two experiments with three treatment replicates for each experiment. Assays for inhibition of spore germination were carried out as described in the summary of invention section above.
The relative level of synergism (RS below) for each combination was calculated by applying Limpel's formula: Ee=X+Y−(XY/100) as described in Richer, D. L, Pestic. Sci. 19, 309-315, 1987. In Limpel's formula, X and Y are the percentages of inhibition relative to each compound used alone and Ee is the expected effect for an additional (non-synergistic) effect. If the combination of the two agents produces an observed effect (Eo) greater than Ee, synergism exists, and as the difference between Eo and Ee increases, the level of synergism is greater. In this experiment, the X value (percentage inhibition by fungal cell wall degrading enzyme when used alone was chosen to be 10 (10% inhibition of spore germination when used alone) and the observed effect, Eo, was 50 (i.e., 50% inhibition of spore germination). The Y values were obtained from the determined concentrations of antifungal cell membrane affecting compound causing the ED50 for a combination and the dose response curves for the antifungal cell membrane affecting compound used alone—i.e., the Y value was the percent inhibition for the antifungal fungal cell membrane affecting compound when used alone for the concentration of antifungal fungal cell membrane affecting compound that was determined to cause the ED50 for the combination. Ee values were then calculated from Limpel's formula. […]

B. cinerea strain 12 = assay: Inhibition of spore germination, ELISA plate assay (Examples III-XVI, XVIII); format: cell-based, Botrytis cinerea; conditions: for ED50: alone or with enzyme at its ED10 concentration; for inhibition of spore germination: FIG. 7
Method: as §1, §2
Each of 8 antifungal fungal cell membrane affecting compounds were used in combination with each of 8 or 6 fungal cell wall degrading enzymes to provide 50% inhibition (ED50) of B. cinerea strain 12 spore germination. Each fungal cell wall degrading enzyme was used at a concentration giving 10% inhibition of spore germination when used alone in combination with an amount of antifungal fungal cell membrane affecting compound so the combination gave 50% inhibition of spore germination.
as §3
The relative level of synergism (RS below) for each combination was calculated by applying Limpel's formula: Ee=X+Y−(XY/100) as described in Richer, D. L, Pestic. Sci. 19, 309-315, 1987. In Limpel's formula, X and Y are the percentages of inhibition relative to each compound used alone and Ee is the expected effect for an additional (non-synergistic) effect. If the combination of the two agents produces an observed effect (Eo) greater than Ee, synergism exists, and as the difference between Eo and Ee increases, the level of synergism is greater. […]

B. cinerea = conditions: against B. cinerea, Watanabe et al; cited from earlier work

trichorzianine B1 [Trich. B1]
solubility (solvent in which the substance dissolves) [1]: readily dissolved in water
ED50 ([2]; Table 27, concentration of trichorzianine B1 for 50% inhibition, alone or with enzyme at its ED10 concentration): 95.5 (92-99) ng ml^−1
ED50 (B. cinerea strain 12; Table 19, concentration of trichorzianine B1 for 50% inhibition): 95.2 (92-99) μg ml^−1

CC(C)[C@@H]1NC(=O)[C@H](C)OC(=O)[C@@H](C(C)C)NC(=O)[C@@H](C(C)C)OC(=O)[C@H](C(C)C)NC(=O)[C@H](C)OC(=O)[C@@H](C(C)C)NC(=O)[C@@H](C(C)C)OC(=O)[C@H](C(C)C)NC(=O)[C@H](C)OC(=O)[C@@H](C(C)C)NC(=O)[C@@H](C(C)C)OC1=O [Valinomycin, valinomycin]
solubility (solvent in which the substance dissolves) [1]: dissolve in acetone
ED ([2]; Table 24, concentration of valinomycin for 50% inhibition, alone or with enzyme at its ED10 concentration): 8.5 (8.0-9.0) ng ml^−1
ED50 (B. cinerea strain 12; Table 16, concentration of valinomycin for 50% inhibition): 7.3 (7.0-7.6) μg ml^−1

gramicidin
solubility (solvent in which the substance dissolves) [1]: dissolves in ethanol
ED50 ([2]; Table 23, concentration of gramicidin for 50% inhibition, alone or with enzyme at its ED10 concentration): >300 ng/mL
inhibition of spore germination ([2]; gramicidin alone): 20-25%
inhibition of spore germination ([2]; gramicidin with glucosidase from T. harzianum strain P1 (10, 25 μg/ml)): about 100%
ED50 (B. cinerea strain 12; Table 15, concentration of gramicidin for 50% inhibition): >300 µg/mL
inhibition of spore germination (B. cinerea strain 12; gramicidin alone): 20-25%
inhibition of spore germination (B. cinerea strain 12; gramicidin with endochitinase from G. virens strain 41 (2.5, 5 μg/ml)): about 100%

trichorzianine A1 [Trich. A1]
solubility (solvent in which the substance dissolves) [1]: readily dissolved in water
ED50 ([2]; Table 26, concentration of trichorzianine A1 for 50% inhibition, alone or with enzyme at its ED10 concentration): 87 (83-91) ng ml^−1
ED50 (B. cinerea strain 12; Table 18, concentration of trichorzianine A1 for 50% inhibition): 90.5 (85-95) μg ml^−1

CN1C(=O)[C@]23CC4=CC=C[C@H](O)[C@H]4N2C(=O)[C@@]1(CO)SS3 [Gliotoxin, gliotoxin]
solubility (solvent in which the substance dissolves) [1]: dissolves in methanol and ethanol

CC(C)OP(=O)(OC(C)C)SCc1ccccc1 [kitazin P]
Minimum inhibitory concentration (B. cinerea): 500 µg/mL (≈ 1730 µM)

NC(=O)OC[C@H](O)[C@@H](O)[C@H](N)C(=O)N[C@H](C(=O)O)[C@H]1O[C@@H](n2cc(CO)c(=O)[nH]c2=O)[C@H](O)[C@@H]1O [polyoxin B]
Minimum inhibitory concentration (B. cinerea): 12.5 µg/mL (≈ 24.6 µM)
